One series addresses D(3) dopamine receptor (Homo sapiens, UniProt P35462). As to the kind of experiment: Binding affinity towards cloned human Dopamine receptor D3 was determined.
For the next series, the target named is T1, D(4) dopamine receptor (Homo sapiens, UniProt P21917).
T1 sequence (P21917 whole entry): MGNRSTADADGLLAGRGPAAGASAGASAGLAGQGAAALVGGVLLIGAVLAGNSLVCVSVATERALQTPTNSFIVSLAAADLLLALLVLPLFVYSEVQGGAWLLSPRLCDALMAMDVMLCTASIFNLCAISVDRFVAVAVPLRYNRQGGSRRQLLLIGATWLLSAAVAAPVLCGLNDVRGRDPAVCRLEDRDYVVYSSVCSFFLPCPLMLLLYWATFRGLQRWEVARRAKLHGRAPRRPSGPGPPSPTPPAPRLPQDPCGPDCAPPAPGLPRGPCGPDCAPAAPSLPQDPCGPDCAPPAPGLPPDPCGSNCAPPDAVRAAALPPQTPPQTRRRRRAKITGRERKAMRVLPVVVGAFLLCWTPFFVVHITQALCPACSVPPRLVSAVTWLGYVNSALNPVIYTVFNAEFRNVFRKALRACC
Put plainly: Binding affinity to recombinant human dopamine receptor D4.

The next series addresses D(2) dopamine receptor (Homo sapiens, UniProt P14416). Put plainly: Binding affinity towards cloned human Dopamine receptor D2 was determined.
In series [1] the target is Serotonin 2 (5-HT2) receptor (Homo sapiens, UniProt P41595+P28223+P28335). As to the kind of experiment: Binding affinity towards cloned human 5-hydroxytryptamine 2 receptor was determined. Type of series: protein assay.
The next series deals with D(1B) dopamine receptor (Homo sapiens, UniProt P21918). Put plainly: Binding affinity towards cloned human Dopamine receptor D5 was determined.
Chain of D(1B) dopamine receptor (P21918 whole entry): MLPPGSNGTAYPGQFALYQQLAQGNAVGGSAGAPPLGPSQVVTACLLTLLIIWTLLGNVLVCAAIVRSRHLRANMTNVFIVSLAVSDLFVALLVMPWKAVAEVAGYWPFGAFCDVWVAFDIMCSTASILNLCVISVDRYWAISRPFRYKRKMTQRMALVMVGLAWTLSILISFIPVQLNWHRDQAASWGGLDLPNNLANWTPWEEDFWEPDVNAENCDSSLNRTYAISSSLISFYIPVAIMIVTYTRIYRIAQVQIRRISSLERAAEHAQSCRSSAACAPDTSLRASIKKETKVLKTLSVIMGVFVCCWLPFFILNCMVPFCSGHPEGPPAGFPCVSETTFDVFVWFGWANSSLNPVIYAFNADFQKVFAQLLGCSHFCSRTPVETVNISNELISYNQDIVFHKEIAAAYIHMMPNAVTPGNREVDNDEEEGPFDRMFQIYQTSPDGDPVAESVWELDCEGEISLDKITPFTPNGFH
Series [2] in a line: Half life in human microsomes. Type of series: ADME, Microsome.
The target of series [3] is T2, 5-hydroxytryptamine receptor 1A (Homo sapiens, UniProt P08908).
T2 sequence (P08908 whole entry): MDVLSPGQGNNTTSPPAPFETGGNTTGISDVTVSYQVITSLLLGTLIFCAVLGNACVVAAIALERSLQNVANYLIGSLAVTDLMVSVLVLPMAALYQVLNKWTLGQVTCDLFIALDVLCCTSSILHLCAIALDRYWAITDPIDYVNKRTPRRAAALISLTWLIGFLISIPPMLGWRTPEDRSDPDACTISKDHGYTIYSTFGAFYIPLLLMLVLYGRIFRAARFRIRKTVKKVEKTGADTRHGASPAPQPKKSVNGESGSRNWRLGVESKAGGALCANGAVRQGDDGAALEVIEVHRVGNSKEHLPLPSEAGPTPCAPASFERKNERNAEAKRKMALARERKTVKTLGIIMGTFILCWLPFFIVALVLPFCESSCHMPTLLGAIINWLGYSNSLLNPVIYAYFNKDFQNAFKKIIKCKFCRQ
As to the kind of experiment: Binding affinity towards cloned human 5-hydroxytryptamine 1A receptor was determined.

Series [4] can be described thus: mLogP was determined. Format: physicochemical. The settings on record: octanol/water; read-out: mLog P.
Series [5] concerns the target T3, Adrenergic receptor alpha-2 (Homo sapiens, UniProt P08913+P18825+P18089).
T3 sequence (P08913 whole entry): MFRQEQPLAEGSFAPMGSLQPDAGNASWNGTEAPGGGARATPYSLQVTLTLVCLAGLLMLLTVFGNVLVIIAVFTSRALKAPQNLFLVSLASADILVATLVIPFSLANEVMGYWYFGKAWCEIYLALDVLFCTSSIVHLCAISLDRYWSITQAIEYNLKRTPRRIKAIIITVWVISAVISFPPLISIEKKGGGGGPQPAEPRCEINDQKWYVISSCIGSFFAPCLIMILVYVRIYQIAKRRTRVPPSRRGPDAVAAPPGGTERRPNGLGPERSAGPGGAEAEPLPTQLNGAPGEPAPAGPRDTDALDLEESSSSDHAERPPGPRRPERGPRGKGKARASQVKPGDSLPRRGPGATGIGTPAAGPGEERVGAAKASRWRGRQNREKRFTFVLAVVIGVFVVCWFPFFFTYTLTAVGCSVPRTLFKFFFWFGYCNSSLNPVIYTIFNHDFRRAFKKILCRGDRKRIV
T3 sequence (P18825 whole entry): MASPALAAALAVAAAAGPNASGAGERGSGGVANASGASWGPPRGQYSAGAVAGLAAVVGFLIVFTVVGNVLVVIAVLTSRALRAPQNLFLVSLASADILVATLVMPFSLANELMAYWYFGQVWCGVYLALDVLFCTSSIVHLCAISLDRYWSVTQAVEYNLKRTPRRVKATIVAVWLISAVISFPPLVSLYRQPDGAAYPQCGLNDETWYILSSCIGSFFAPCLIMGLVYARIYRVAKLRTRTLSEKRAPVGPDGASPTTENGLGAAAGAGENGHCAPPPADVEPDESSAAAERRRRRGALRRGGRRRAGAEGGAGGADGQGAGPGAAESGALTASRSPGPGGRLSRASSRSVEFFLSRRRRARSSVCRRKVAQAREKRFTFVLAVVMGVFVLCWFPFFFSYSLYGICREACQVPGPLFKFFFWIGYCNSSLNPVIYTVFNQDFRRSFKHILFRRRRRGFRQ
T3 sequence (P18089 whole entry): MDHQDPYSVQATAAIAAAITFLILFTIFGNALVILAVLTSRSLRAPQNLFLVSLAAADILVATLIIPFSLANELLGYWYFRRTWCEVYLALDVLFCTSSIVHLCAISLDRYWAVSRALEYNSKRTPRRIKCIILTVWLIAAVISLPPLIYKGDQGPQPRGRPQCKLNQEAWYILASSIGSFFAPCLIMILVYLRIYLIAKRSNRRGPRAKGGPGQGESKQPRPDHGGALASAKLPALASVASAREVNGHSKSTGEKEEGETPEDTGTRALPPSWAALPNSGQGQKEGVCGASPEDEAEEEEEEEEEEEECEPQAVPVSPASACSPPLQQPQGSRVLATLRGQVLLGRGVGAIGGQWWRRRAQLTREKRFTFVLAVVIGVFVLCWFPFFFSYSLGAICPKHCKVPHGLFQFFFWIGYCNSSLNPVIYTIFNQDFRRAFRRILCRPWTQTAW
Put plainly: Binding affinity towards cloned human Alpha-2 adrenergic receptor was determined. Format: protein assay.

Chain of D(3) dopamine receptor (P35462 whole entry): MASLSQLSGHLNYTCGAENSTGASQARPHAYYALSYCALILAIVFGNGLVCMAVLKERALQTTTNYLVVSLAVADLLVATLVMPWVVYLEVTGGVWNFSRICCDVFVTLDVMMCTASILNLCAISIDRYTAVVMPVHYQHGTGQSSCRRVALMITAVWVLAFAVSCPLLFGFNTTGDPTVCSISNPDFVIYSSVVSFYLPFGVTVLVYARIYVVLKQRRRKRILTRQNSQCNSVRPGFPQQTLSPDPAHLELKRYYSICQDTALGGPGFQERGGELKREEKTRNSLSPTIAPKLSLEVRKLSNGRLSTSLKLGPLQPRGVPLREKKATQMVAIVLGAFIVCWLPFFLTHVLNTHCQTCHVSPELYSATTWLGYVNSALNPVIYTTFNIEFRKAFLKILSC
Chain of D(2) dopamine receptor (P14416 whole entry): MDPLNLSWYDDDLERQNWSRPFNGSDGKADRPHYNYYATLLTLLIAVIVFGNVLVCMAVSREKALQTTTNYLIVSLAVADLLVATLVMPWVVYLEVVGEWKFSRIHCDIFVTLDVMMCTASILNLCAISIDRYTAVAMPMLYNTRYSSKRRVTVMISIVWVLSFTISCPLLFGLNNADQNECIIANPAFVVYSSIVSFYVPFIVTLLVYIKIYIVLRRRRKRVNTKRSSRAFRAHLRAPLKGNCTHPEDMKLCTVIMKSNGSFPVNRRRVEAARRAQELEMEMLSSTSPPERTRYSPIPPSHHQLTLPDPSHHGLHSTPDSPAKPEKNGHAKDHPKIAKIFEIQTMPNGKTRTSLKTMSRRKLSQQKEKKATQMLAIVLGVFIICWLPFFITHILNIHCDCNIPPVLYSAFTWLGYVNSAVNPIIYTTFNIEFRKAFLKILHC

For `Cc1sc(C)c2c1CCCc1c[nH]nc1-2`, the inhibition constant (Ki) (usually the dissociation constant of the complex between target and ligand, obtained from inhibition or displacement) at D(3) dopamine receptor is more than 10 µM; at D(4) dopamine receptor it was 12 nM; on D(2) dopamine receptor it was 2070 nM; in [1] it was 2087 nM; on D(1B) dopamine receptor it was more than 10 µM; in series [3], more than 1000 nM. Moreover, the Ki in [5] is more than 7.8 µM. Moreover, in series [2], the half-life (as a rule, how long it takes for the measured level to halve) was determined as 6 min. The logP in [4] was 2.48.

Source of the values: ChEMBL document CHEMBL1136188, “1H-Pyrazolo-[3,4-c]cyclophepta[1,2-c]thiophenes: a unique structural class of dopamine D4 selective ligands” (Bioorg Med Chem Lett, 2003).
